ChEMBL document CHEMBL3301562, “MMV Box screening against Plasmodium falciparum protein kinases and aminoacyl tRNA synthetases”

Assays:
Assay type in all cases: functional
[1] = target: Calcium-dependent protein kinase 1 (Plasmodium falciparum, UniProt P62344); experiment: MMV: CDPK1 Protein kinase inhibition assay using recombinant PfCDPK1, syntide 2 peptide substrate, ATP and KinaseGlo to measure % inhibition at 1 uM MMV box compound.
[2] = target: T1, Putative uncharacterized protein pk7 (Plasmodium falciparum, UniProt O96214); experiment: Final concentrations were 1 uM ATP, 2 mM DTT, 20 mM MgCl2, 2 mM MnCl2, 0.01% BSA, and 6 ug/ml PK7, in a buffer of 20 mM Tris-HCl (pH 7.5). The enzyme itself was the only substrate present (since autophosphorylation occurs); 100 uM 1NA-PP1 was used as a control inhibitor. Incubation time was 3 hours.
T1 sequence (O96214 whole entry): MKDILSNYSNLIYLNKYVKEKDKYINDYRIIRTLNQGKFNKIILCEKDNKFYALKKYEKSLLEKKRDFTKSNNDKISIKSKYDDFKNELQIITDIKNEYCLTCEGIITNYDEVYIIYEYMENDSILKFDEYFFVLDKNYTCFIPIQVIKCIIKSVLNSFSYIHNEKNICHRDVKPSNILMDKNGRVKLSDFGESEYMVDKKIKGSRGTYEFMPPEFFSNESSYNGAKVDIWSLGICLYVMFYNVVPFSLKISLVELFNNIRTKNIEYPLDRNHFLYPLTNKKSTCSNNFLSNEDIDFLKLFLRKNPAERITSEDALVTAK

[3] = target: T2, Cdk-related protein kinase 6 (Plasmodium falciparum, UniProt O77239); experiment: Final concentrations were 1.5 uM ATP, 5 mM MnCl2, and 15 ug/ml PK6 in a buffer of 100 mM Tris-HCl (pH 7.5). 50 ug/mL MBP was provided as the substrate; 10 uM staurosporine was used as a control inhibitor. Incubation time was 3 hours and 40 minutes.The catalytic activity of each kinase was considered proportional to ATP consumed, as determined from measurements of residual [ATP] with the luciferase-based reagent Kinase-Glo (Promega) following incubation. Luminescence (proportional to residual [ATP]) was measured on the plate readers FLx800 (BioTek Instruments, Winooski, VT, USA) and MicroBeta2.
T2 sequence (O77239 whole entry): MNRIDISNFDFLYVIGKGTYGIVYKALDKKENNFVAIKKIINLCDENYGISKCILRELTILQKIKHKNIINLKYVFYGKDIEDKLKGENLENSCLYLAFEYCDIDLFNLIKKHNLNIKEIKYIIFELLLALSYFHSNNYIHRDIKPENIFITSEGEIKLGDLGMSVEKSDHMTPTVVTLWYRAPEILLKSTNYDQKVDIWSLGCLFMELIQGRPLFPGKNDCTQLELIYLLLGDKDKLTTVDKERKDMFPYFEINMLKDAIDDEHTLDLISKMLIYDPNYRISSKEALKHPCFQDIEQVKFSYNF

[4] = target: T3, Proline--tRNA ligase (Plasmodium falciparum (isolate 3D7), UniProt Q8I5R7); experiment: MMV: ProRS recombinant Plasmodium falciparum Prolyl-tRNA-synthetase, assay with yeast tRNA, ATP, and proline and 3 uM MMV malaria box compound, assay read out with kinase glo as % inhibition.
T3 sequence (Q8I5R7 whole entry): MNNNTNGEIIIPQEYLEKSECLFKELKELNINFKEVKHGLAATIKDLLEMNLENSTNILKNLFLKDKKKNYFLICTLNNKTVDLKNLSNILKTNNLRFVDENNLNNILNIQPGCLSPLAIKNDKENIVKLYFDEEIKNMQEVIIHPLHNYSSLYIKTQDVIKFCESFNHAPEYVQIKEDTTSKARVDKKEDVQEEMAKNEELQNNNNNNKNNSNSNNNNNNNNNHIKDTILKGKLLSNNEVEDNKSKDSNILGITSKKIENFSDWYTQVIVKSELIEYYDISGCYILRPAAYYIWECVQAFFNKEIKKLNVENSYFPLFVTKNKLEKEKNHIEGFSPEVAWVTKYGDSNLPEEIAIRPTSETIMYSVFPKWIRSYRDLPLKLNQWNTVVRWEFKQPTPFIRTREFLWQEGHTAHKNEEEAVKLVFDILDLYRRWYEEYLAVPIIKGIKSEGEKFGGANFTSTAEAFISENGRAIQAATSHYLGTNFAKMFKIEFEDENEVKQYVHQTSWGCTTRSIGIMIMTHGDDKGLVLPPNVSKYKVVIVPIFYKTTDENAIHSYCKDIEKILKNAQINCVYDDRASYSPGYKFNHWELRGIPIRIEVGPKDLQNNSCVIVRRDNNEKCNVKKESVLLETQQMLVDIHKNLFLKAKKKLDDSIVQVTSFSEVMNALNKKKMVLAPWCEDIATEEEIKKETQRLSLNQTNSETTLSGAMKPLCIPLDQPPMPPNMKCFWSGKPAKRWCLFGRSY

[5] = target: T4, Calcium-dependent protein kinase 4 (Plasmodium falciparum (isolate 3D7), UniProt Q8IBS5); experiment: MMV: CDPK4 Protein kinase inhibition assay using recombinant PfCDPK4, syntide2 peptide substrate, ATP and KinaseGlo to measure % inhibition at 1 uM MMV box compound.
T4 sequence (Q8IBS5 whole entry): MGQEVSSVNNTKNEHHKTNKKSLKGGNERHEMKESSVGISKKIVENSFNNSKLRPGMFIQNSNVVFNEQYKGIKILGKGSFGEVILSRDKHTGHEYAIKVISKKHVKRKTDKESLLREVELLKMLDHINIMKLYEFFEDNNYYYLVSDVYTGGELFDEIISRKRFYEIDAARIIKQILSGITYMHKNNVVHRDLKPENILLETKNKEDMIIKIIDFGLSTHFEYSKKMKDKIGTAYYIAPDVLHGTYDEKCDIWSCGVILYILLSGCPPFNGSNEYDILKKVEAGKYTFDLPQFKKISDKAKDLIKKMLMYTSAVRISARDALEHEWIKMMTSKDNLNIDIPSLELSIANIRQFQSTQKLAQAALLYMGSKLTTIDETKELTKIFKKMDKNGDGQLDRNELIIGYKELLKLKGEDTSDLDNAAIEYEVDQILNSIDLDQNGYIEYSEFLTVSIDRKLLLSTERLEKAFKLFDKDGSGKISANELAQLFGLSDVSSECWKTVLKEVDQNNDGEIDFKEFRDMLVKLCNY

[6] = target: T5, Mitogen-activated protein kinase (Plasmodium falciparum, UniProt Q25917); experiment: Final concentrations were 1 uM ATP, 0.5 mM DTT, 1 mM MgCl2, 0.5 mg/mL BSA, and 10 ug/ml MAP2 in a buffer of 50 mM HEPES (pH 7.0). 0.5 mg/mL histone III-S served as the substrate (13); 100 uM AMP-PNP, an ATP analog, was used as a control inhibitor. Incubation time was 4 hours.
T5 sequence (Q25917 whole entry): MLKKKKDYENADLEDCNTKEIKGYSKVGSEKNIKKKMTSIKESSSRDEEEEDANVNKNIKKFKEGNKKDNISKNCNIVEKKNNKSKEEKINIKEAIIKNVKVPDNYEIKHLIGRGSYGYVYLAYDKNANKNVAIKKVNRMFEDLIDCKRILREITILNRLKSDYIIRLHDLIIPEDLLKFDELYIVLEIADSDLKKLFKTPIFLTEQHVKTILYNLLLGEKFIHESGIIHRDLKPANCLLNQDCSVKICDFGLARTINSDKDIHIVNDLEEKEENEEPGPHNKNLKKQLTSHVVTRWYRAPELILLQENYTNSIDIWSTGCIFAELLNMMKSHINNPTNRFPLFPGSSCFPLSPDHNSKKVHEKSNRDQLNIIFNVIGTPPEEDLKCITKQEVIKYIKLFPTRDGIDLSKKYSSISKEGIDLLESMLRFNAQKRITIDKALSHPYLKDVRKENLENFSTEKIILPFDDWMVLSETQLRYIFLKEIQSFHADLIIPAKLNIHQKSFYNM

[7] = target: Lysine--tRNA ligase (Plasmodium falciparum (isolate 3D7), UniProt Q8IDJ8); experiment: MMV: KRS recombinant Plasmodium falciparum Lysyl-tRNA-synthetase, assay with yeast tRNA, ATP, and lysine and 3 uM MMV malaria box compound, assay read out with kinase glo as % inhibition.
Chain of Lysine--tRNA ligase (Q8IDJ8 whole entry): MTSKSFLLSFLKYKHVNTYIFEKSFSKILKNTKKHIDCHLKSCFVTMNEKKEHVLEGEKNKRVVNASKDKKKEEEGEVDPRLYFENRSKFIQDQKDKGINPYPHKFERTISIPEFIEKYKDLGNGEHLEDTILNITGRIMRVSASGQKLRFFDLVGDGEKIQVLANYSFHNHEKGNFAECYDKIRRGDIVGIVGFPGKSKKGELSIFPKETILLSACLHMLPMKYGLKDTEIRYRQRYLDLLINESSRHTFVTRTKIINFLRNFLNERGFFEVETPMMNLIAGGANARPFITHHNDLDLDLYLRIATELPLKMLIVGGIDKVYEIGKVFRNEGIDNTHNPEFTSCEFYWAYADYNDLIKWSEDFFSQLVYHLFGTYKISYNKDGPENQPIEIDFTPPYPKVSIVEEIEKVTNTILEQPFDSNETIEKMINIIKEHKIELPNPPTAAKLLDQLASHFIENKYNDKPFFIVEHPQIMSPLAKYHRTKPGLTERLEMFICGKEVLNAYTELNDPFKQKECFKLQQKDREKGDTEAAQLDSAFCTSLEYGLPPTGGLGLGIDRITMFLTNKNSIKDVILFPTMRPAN

Chain of Calcium-dependent protein kinase 1 (P62344 whole entry): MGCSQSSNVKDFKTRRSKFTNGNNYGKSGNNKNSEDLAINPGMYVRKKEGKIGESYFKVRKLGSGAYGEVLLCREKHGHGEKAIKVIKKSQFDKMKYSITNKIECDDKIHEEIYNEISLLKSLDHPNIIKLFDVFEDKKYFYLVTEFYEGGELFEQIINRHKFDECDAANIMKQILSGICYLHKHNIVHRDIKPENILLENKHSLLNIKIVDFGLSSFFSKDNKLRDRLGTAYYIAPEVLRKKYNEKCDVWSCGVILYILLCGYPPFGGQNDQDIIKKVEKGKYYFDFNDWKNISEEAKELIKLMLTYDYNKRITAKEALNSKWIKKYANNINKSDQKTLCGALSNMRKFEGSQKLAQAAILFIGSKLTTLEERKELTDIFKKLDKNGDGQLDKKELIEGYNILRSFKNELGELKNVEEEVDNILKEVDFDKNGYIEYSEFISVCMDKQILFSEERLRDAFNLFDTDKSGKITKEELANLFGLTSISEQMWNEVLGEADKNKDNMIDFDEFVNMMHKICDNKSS

SMILES	IC50 [1] [µM]	IC50 [2] [µM]	IC50 [3] [µM]	IC50 [4] [µM]	IC50 [5] [µM]	IC50 [6] [µM]	IC50 [7] [µM]
OC(CNC1CCCC1)Cn1c2ccccc2c2ccccc21 (configuration not stated)	> 1	> 1	> 1	> 2.5	> 1	> 1	> 2.5
Cc1cc(Nc2ccc3ccccc3c2)n2ncnc2n1	> 1	> 1	> 1	> 2.5	> 1	> 1	> 2.5
CCOC(=O)c1cnc2ccc(Cl)cc2c1NCCCN(C)C	> 1	> 1	> 1	> 2.5	> 1	> 1	> 2.5
CNCCCNc1ccnc2cc(Cl)ccc12	> 1	> 1	> 1	> 2.5	> 1	> 1	> 2.5
CCOc1cc2c(cc1OCC)C(c1cc(C)c(O)c(C)c1)NCC2 (configuration not stated)	> 1	> 1	> 1	> 2.5	> 1	> 1	> 2.5
Cc1cc(C=C2SC(=Nc3ccccc3)N(C3CCCC3)C2=O)c(C)n1-c1ccc(Cl)cc1	> 1	> 1	> 1	> 2.5	> 1	> 1	> 2.5
Cc1ccnc(NC(c2cccc(OCc3ccccc3)c2)c2ccc3cccnc3c2O)c1 (configuration not stated)	> 1	> 1	> 1	> 2.5	> 1	> 1	> 2.5
COc1ccc(OC)c(C2C3=C(CC(C)(C)CC3=O)N(c3ccc(Cl)c(Cl)c3)C3=C2C(=O)CC(C)(C)C3)c1	> 1	> 1	> 1	> 2.5	> 1	> 1	> 2.5
Cc1c(C)n(Cc2ccc(F)cc2)c2ccc(C(=O)NCc3ccco3)cc12	> 1	> 1	> 1	> 2.5	> 1	> 1	> 2.5
COc1ccc(CCN2CCC(CN(C)Cc3cnn(-c4ccccc4)c3)CC2)cc1	> 1	> 1	> 1	> 2.5	> 1	> 1	> 2.5
CCCCNCC(O)(c1ccc(Cl)cc1)c1ccc(Cl)cc1	> 1	> 1	> 1	> 2.5	> 1	> 1	> 2.5
Clc1cc(Br)ccc1-c1ccc(CNCC2CCNCC2)o1	> 1	> 1	> 1	> 2.5	> 1	> 1	> 2.5
COc1cc(-c2nc(-c3ccccc3)c(-c3ccccc3)[nH]2)cc(OC)c1O	> 1	> 1	> 1	> 2.5	> 1	> 1	> 2.5
COc1ccc2nc(C)cc(Nc3cccc(O)c3)c2c1	> 1	> 1	> 1	> 2.5	> 1	> 1	> 2.5
CCN(CC)CCn1c(=N)n(CC(O)c2ccc(Cl)c(Cl)c2)c2ccccc21 (configuration not stated)	> 1	> 1	> 1	> 2.5	> 1	> 1	> 2.5
O=C1c2ccccc2-c2nnc(-c3ccc(Br)cc3)cc21	> 1	> 1	> 1	> 2.5	> 1	> 1	> 2.5
CCOc1ccc(-c2nonc2NC(=O)c2cccc(C)c2)cc1OCC	> 1	> 1	> 1	> 2.5	> 1	> 1	> 2.5
CCN1CCCC1CNc1[nH]cnc2c3cc(Cl)ccc3nc1-2 (configuration not stated)	> 1	> 1	> 1	> 2.5	> 1	> 1	> 2.5
Cc1cc(NCCN2CCCCC2)c2ccc3ccccc3c2n1	> 1	> 1	> 1	> 2.5	> 1	> 1	> 2.5
COc1ccc(-c2cc3c(SCC(=O)Nc4cc(C(F)(F)F)ccc4Cl)nccn3n2)cc1	> 1	> 1	> 1	> 2.5	> 1	> 1	> 2.5
COc1ccc(-c2cc3c(nn2)-c2ccccc2C3=O)cc1	> 1	> 1	> 1	> 2.5	> 1	> 1	> 2.5
